Source: PubChem BioAssay AID2060509 (Molecular Pharmacology Branch, DTP, NCI, 2025)

Test system: 485176-168-R4-J1-PDC spheroids with HUVEC/MSC, viability
Assay: Anticancer human tumor 485176-168-R4-J1-PDC patient-derived pancreatic adenocarcinoma cell line growth inhibition [GQUAD]
Details: for IC50: curve of first compound; for viability, T/C: stronger effect = lower value
Procedure, shortened: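 Multi-cell-type spheroids of tumor cells with HUVEC and mesenchymal stem cells, treated with drug combinations. Concentrations descend in half-log steps from near clinical Cmax, or from 10 microM where Cmax is unknown; viability read-out.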

[1] = second compound 0.0316 µM, first compound 0.0316 µM
[2] = second compound 0.0316 µM, first compound 0.1 µM
[3] = second compound 0.0316 µM, first compound 0.316 µM
[4] = second compound 0.0316 µM, first compound 1 µM
[5] = second compound 0.0316 µM, first compound 3.16 µM
[6] = second compound 0.0316 µM, first compound 10 µM
[7] = second compound 0.1 µM, first compound 0.0316 µM
[8] = second compound 0.1 µM, first compound 0.1 µM
[9] = second compound 0.1 µM, first compound 0.316 µM
[10] = second compound 0.1 µM, first compound 1 µM
[11] = second compound 0.1 µM, first compound 3.16 µM
[12] = second compound 0.1 µM, first compound 10 µM
[13] = second compound 0.316 µM, first compound 0.0316 µM
[14] = second compound 0.316 µM, first compound 0.1 µM
[15] = second compound 0.316 µM, first compound 0.316 µM
[16] = second compound 0.316 µM, first compound 1 µM
[17] = second compound 0.316 µM, first compound 3.16 µM
[18] = second compound 0.316 µM, first compound 10 µM
[19] = second compound 1 µM, first compound 0.0316 µM
[20] = second compound 1 µM, first compound 0.1 µM
[21] = second compound 1 µM, first compound 0.316 µM
[22] = second compound 1 µM, first compound 1 µM
[23] = second compound 1 µM, first compound 3.16 µM
[24] = second compound 1 µM, first compound 10 µM
[25] = second compound 3.16 µM, first compound 0.0316 µM
[26] = second compound 3.16 µM, first compound 0.1 µM
[27] = second compound 3.16 µM, first compound 0.316 µM
[28] = second compound 3.16 µM, first compound 1 µM
[29] = second compound 3.16 µM, first compound 3.16 µM
[30] = second compound 3.16 µM, first compound 10 µM
[31] = second compound 10 µM, first compound 0.0316 µM
[32] = second compound 10 µM, first compound 0.1 µM
[33] = second compound 10 µM, first compound 0.316 µM
[34] = second compound 10 µM, first compound 1 µM
[35] = second compound 10 µM, first compound 3.16 µM
[36] = second compound 10 µM, first compound 10 µM
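Also: spheroids exposed to compounds for seven days before readout.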
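For viability, T/C in this document: percent viability relative to DMSO vehicle control wells as 100%.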

SMILES: O=C(c1cc(Cc2n[nH]c(=O)c3ccccc23)ccc1F)N1CCN(C(=O)C2CC2)CC1 + Cc1[nH]c2ccc(F)cc2c1-c1nc2c3cccnc3c3ncccc3c2[nH]1
- IC50 (second compound 0.0316 µM): > 10000 nM
- IC50 (second compound 0.1 µM): > 10000 nM
- IC50 (second compound 0.316 µM): > 10000 nM
- IC50 (second compound 1 µM): > 10000 nM
- IC50 (second compound 3.16 µM): > 10000 nM
- IC50 (second compound 10 µM): > 10000 nM
- viability, T/C [1]: 99.9%
- viability, T/C [2]: 75.3%
- viability, T/C [3]: 85.6%
- viability, T/C [4]: 80.5%
- viability, T/C [5]: 91.2%
- viability, T/C [6]: 69.9%
- viability, T/C [7]: 82.6%
- viability, T/C [8]: 93.9%
- viability, T/C [9]: 90.3%
- viability, T/C [10]: 106%
- viability, T/C [11]: 83.2%
- viability, T/C [12]: 74.9%
- viability, T/C [13]: 93.8%
- viability, T/C [14]: 90.5%
- viability, T/C [15]: 94.6%
- viability, T/C [16]: 95.6%
- viability, T/C [17]: 77.8%
- viability, T/C [18]: 77.3%
- viability, T/C [19]: 92.8%
- viability, T/C [20]: 78.9%
- viability, T/C [21]: 88.1%
- viability, T/C [22]: 86.4%
- viability, T/C [23]: 101%
- viability, T/C [24]: 68.8%
- viability, T/C [25]: 91.4%
- viability, T/C [26]: 89.2%
- viability, T/C [27]: 85.3%
- viability, T/C [28]: 77.6%
- viability, T/C [29]: 88.1%
- viability, T/C [30]: 62.5%
- viability, T/C [31]: 78.5%
- viability, T/C [32]: 85.3%
- viability, T/C [33]: 70.4%
- viability, T/C [34]: 77.1%
- viability, T/C [35]: 80%
- viability, T/C [36]: 57.5%

SMILES: O=C(NO)c1cnc(N2CCN(S(=O)(=O)c3ccc4ccccc4c3)CC2)nc1 + Cc1cnc(CNC(=O)c2c(=O)c3ccc(N4CCCN(C)CC4)nc3n3c2sc2ccccc23)cn1
- IC50 (second compound 0.0316 µM): 322 nM
- IC50 (second compound 0.1 µM): 185 nM
- IC50 (second compound 0.316 µM): 132 nM
- IC50 (second compound 1 µM): < 31.6 nM
- IC50 (second compound 3.16 µM): < 31.6 nM
- IC50 (second compound 10 µM): < 31.6 nM
- viability, T/C [1]: 81%
- viability, T/C [2]: 62.6%
- viability, T/C [3]: 53.3%
- viability, T/C [4]: 8.83%
- viability, T/C [5]: 0.53%
- viability, T/C [6]: 0.27%
- viability, T/C [7]: 66.3%
- viability, T/C [8]: 57.2%
- viability, T/C [9]: 42%
- viability, T/C [10]: 8.37%
- viability, T/C [11]: 0.28%
- viability, T/C [12]: 1.03%
- viability, T/C [13]: 59.1%
- viability, T/C [14]: 51.5%
- viability, T/C [15]: 35.7%
- viability, T/C [16]: 2.63%
- viability, T/C [17]: 0.22%
- viability, T/C [18]: 0.44%
- viability, T/C [19]: 39.8%
- viability, T/C [20]: 44.7%
- viability, T/C [21]: 23.2%
- viability, T/C [22]: 0.9%
- viability, T/C [23]: 1.33%
- viability, T/C [24]: 0.81%
- viability, T/C [25]: 45.5%
- viability, T/C [26]: 41.9%
- viability, T/C [27]: 18.6%
- viability, T/C [28]: 0.3%
- viability, T/C [29]: 0.21%
- viability, T/C [30]: 0.18%
- viability, T/C [31]: 36.3%
- viability, T/C [32]: 33.3%
- viability, T/C [33]: 14.1%
- viability, T/C [34]: 0.24%
- viability, T/C [35]: 1.65%
- viability, T/C [36]: 0.46%

SMILES: O=C(c1cc(Cc2n[nH]c(=O)c3ccccc23)ccc1F)N1CCN(C(=O)C2CC2)CC1 + Cc1cnc(CNC(=O)c2c(=O)c3ccc(N4CCCN(C)CC4)nc3n3c2sc2ccccc23)cn1
- IC50 (second compound 0.0316 µM): > 10000 nM
- IC50 (second compound 0.1 µM): > 10000 nM
- IC50 (second compound 0.316 µM): > 10000 nM
- IC50 (second compound 1 µM): < 31.6 nM
- IC50 (second compound 3.16 µM): < 31.6 nM
- IC50 (second compound 10 µM): < 31.6 nM
- viability, T/C [1]: 92.7%
- viability, T/C [2]: 74.2%
- viability, T/C [3]: 85.1%
- viability, T/C [4]: 71%
- viability, T/C [5]: 68.4%
- viability, T/C [6]: 75.7%
- viability, T/C [7]: 63.5%
- viability, T/C [8]: 75.8%
- viability, T/C [9]: 63.4%
- viability, T/C [10]: 64.4%
- viability, T/C [11]: 75.8%
- viability, T/C [12]: 59.2%
- viability, T/C [13]: 57.2%
- viability, T/C [14]: 52.8%
- viability, T/C [15]: 60.7%
- viability, T/C [16]: 59.2%
- viability, T/C [17]: 54.2%
- viability, T/C [18]: 45.6%
- viability, T/C [19]: 44.8%
- viability, T/C [20]: 43.7%
- viability, T/C [21]: 52.6%
- viability, T/C [22]: 42.6%
- viability, T/C [23]: 48.4%
- viability, T/C [24]: 42.6%
- viability, T/C [25]: 47.4%
- viability, T/C [26]: 43.7%
- viability, T/C [27]: 38.4%
- viability, T/C [28]: 38.6%
- viability, T/C [29]: 41.6%
- viability, T/C [30]: 35.8%
- viability, T/C [31]: 43.5%
- viability, T/C [32]: 39.7%
- viability, T/C [33]: 42.1%
- viability, T/C [34]: 38.4%
- viability, T/C [35]: 35.6%
- viability, T/C [36]: 35.4%

SMILES: COc1cc(C2c3cc4c(cc3C(OC3OC5COC(C)OC5C(O)C3O)C3COC(=O)C23)OCO4)cc(OC)c1O (stereo not drawn) + CN(C)c1ccc(Nc2c3ccc(NC(=O)CCN4CCCC4)cc3nc3cc(NC(=O)CCN4CCCC4)ccc23)cc1
- IC50 (second compound 0.0316 µM): 340 nM
- IC50 (second compound 0.1 µM): 476 nM
- IC50 (second compound 0.316 µM): 474 nM
- IC50 (second compound 1 µM): 412 nM
- IC50 (second compound 3.16 µM): 333 nM
- IC50 (second compound 10 µM): 303 nM
- viability, T/C [1]: 87%
- viability, T/C [2]: 74.7%
- viability, T/C [3]: 38.9%
- viability, T/C [4]: 39.6%
- viability, T/C [5]: 30.1%
- viability, T/C [6]: 9.84%
- viability, T/C [7]: 89.6%
- viability, T/C [8]: 82.8%
- viability, T/C [9]: 46.4%
- viability, T/C [10]: 41.2%
- viability, T/C [11]: 29.2%
- viability, T/C [12]: 12.1%
- viability, T/C [13]: 98.8%
- viability, T/C [14]: 81.5%
- viability, T/C [15]: 47.5%
- viability, T/C [16]: 42.2%
- viability, T/C [17]: 26.3%
- viability, T/C [18]: 10.1%
- viability, T/C [19]: 90.6%
- viability, T/C [20]: 71.6%
- viability, T/C [21]: 50.6%
- viability, T/C [22]: 39.1%
- viability, T/C [23]: 24.6%
- viability, T/C [24]: 9.92%
- viability, T/C [25]: 75.5%
- viability, T/C [26]: 63.7%
- viability, T/C [27]: 44.5%
- viability, T/C [28]: 39.5%
- viability, T/C [29]: 33.6%
- viability, T/C [30]: 12.8%
- viability, T/C [31]: 95.5%
- viability, T/C [32]: 69.8%
- viability, T/C [33]: 45.3%
- viability, T/C [34]: 36.9%
- viability, T/C [35]: 23.4%
- viability, T/C [36]: 10.2%
